Experimental data: patent publication US20120270928A1, “MICRORNA COMPOUNDS AND METHODS FOR MODULATING MIR-21 ACTIVITY” (REGULUS THERAPEUTICS INC., priority 2011, published 2012)
Several values for one entry are separate records, joined by “and”; a condition that tells them apart may be missing. Equal entries are not always repeated.

Legend:
[1] = test system: ischemia reperfusion injury/nephrectomy (IR/Nx) model; assay: Ischemia reperfusion injury/nephrectomy (IR/Nx) model: urinary albumin to creatinine ratio; format: in vivo, mouse; settings: 20 mg/kg subcutaneously on days 2, 3, 4, and 8, urine on day 9
Source text: An ischemia reperfusion injury/nephrectomy (IR/Nx) model is created in the mouse through temporary unilateral clamping of an artery in one kidney, which leads to tubule damage, inflammation, and fibrosis, followed by removal of the second kidney at a later timepoint. In this model, the acute kidney dysfunction phase is useful to test candidate agents for the treatment of acute kidney injury (i.e. up to about the first 5 days), and the later phases of kidney dysfunction are useful to model chronic fibrosis (i.e. after about the first 5 days).
Unilateral IR was induced for a period of 30 minutes. Treatment groups were as follows: sham IR procedure; IR with PBS administered subcutaneously; IR with mismatched control 25109 administered subcutaneously at a dose of 20 mg/kg; IR with anti-miR-21 compound 25070 administered subcutaneously at a dose of 20 mg/kg; and IR with anti-miR-21 compound 25923 administered subcutaneously at a dose of 20 mg/kg. PBS or anti-miR was administered on days 2, 3, 4, and 8 following IR. On day 8, the healthy kidney was removed by nephrectomy from each animal, and animals were sacrificed on day 9. Just prior to sacrifice, urine was collected by direct bladder puncture.
Urinary albumin to creatinine ratio was measured in the urine from each mouse. […] The geometric mean of the albumin to creatinine ratio in each group of mice was 16 μgAlb/mgCr (nephrectomy-only control), 127 μgAlb/mgCr (IR/Nx, PBS control), 140 μgAlb/mgCr (IR/Nx, 25109 control), 40 μgAlb/mgCr (IR/Nx, 25070), and 31 μgAlb/mgCr (IR/Nx, 25923). Blood urea nitrogen and serum creatinine levels were similar across all IR/Nx mice, and were elevated relative to nephrectomy-only control mice (data not shown).

[2] = test system: UUO model of kidney fibrosis; assay: Unilateral ureteral obstruction (UUO) model of kidney fibrosis: kidney collagen 1A1 and collagen 3A1 expression by real-time PCR; format: in vivo, mice; settings: for Collagen 3A1 (Normalized Expression) Mean / Collagen 1A1 (Normalized Expression) Mean / Collagen 1A1 (Normalized Expression) / Collagen 3A1 (Normalized Expression): Table K, UUO mice, kidney at day 11; for Collagen 3A1 (Normalized Expression) Mean / Collagen 1A1 (Normalized Expression) Mean: group mean; for Collagen 3A1 (Normalized Expression) Mean / Collagen 1A1 (Normalized Expression) Mean / reduction in collagen expression (in words): 20 mg/kg at days -3, -1, +5; for Collagen 3A1 (Normalized Expression) Mean: UUO-PBS mean 87.2; for Collagen 1A1 (Normalized Expression) Mean: UUO-PBS mean 114.9; for Collagen 1A1 (Normalized Expression) / Collagen 3A1 (Normalized Expression): individual animals, 20 mg/kg at days -3, -1, +5 (prophylactic), real-time PCR normalized to GAPDH then sham, 20 mg/kg; for reduction in collagen expression (in words): meta-analysis of UUO studies
Method: Unilateral ureteral obstruction (UUO) is a well-established experimental model of renal injury leading to interstitial fibrosis, and thus is used as an experimental model that is reflective of human kidney disease. UUO is induced by surgically ligating a single ureter. As fibrosis is characterized by an increase in collagen, the presence and extent of kidney fibrosis may be determined by measuring collagen content. Both collagen 1A1 (Col 1A1) and collagen 3A1 (Col 3A1) are measured to assess collagen content. Kidney fibrosis may be visualized by staining tissue samples with picro-sirius red to detect increases in collagen content. Kidney fibrosis may also be observed by measuring the amount of hydroxyproline, which is a major component of collagen, in a sample.
The cEt-containing anti-miR-21 compounds found to be active in the luciferase assay were tested in the UUO model of kidney fibrosis. 25919 comprising 2′-MOE and 2′-fluoro modifications is known to inhibit miR-21 activity in vivo and was included as a positive control. Groups of 8 animals each were treated as follows: UUO only, UUO with PBS, or UUO with anti-miR-21 compound. Relative to the day of the UUO procedure, PBS or anti-miR-21 compound was administered at days −3, −1, and +5. Anti-miR-21 compounds were administered at a dose of 20 mg/kg. As the anti-miR compounds were administered prior to the UUO procedure, this dosing regimen is considered a prophylactic treatment. At day 11, animals were sacrificed and kidney was isolated for measurement of collagen expression. Collagen expression was measured by real-time PCR and normalized first to GAPDH and then to the sham control animals.
The UUO study was repeated to confirm the activity of 25070. The anti-miR was administered subcutaneously at a dose of 20 mg/kg.
Control treatment groups included UUO only (sham) and UUO with PBS administered subcutaneously. An additional control group included UUO with Tween-MC/20 carrier perorally. 25070 administered subcutaneously at dose of 20 mg/kg at 5 days prior to, 2 days prior to, and 3 days after, the UUO procedure. Irbesartan was administered perorally on daily on days 0 through 7 following the UUO procedure. Animals were sacrificed on Day 10 following the UUO procedure. Kidney tissue was collected for measurement of collagen 1A1 and collagen 3A1 expression.
Compounds 25220 and 25221, as well as 25923, were tested in the UUO model for their effects on fibrosis. Groups of 8 animals each were treated as follows: sham surgery, UUO with PBS, UUO with 25220, UUO with 25221, or UUO with 25923. Relative to the day of the UUO procedure, PBS or anti-miR-21 compound was administered at days −5, −3, and +3. Anti-miR-21 compounds were administered at a dose of 20 mg/kg. As the anti-miR compounds were administered prior to the UUO procedure, this dosing regimen is considered a prophylactic treatment. At day 10, animals were sacrificed and kidney was isolated for measurement of collagen expression. Collagen expression was measured by real-time PCR and normalized to GAPDH.

miR-21 = miR-21 luciferase sensor assay in Hela cells; format: cell-based; settings: Hela cells
Method: The compounds were assessed for miR-21 inhibitory activity in a luciferase assay. A microRNA luciferase sensor construct was engineered using pGL3-MCS2 (Promega). The construct was introduced into Hela cells to test the ability of anti-miR compounds to inhibit activity of miR-21. In this assay, miR-21 present in the Hela cells binds to its cognate site(s) in the luciferase sensor construct, and suppresses luciferase expression. When the appropriate anti-miR is introduced into the cells, it binds to miR-21 and relieves suppression of luciferase expression. Thus, in this assay anti-miRs that are effective inhibitors of miR-21 expression will cause an increase in luciferase expression.
Hela cells (ATCC), stably transfected with a luciferase construct engineered to contain a sequence complementary of miR-21, were seeded in T-170 flasks (BD Falcon) at 3.5*10^6 cells/flask. Hela cells were grown in Dulbecco's Modified Eagle Medium with High Glucose (Invitrogen).
Each flask of Hela cells was transfected with 0.5 ug of a phRL sensor plasmid (Promega) expressing Renilla to be used in normalization. Hela cells were transfected using 20 ul Lipofectamine 2000/flask (Invitrogen). After 4 hours of transfection, cells were washed with PBS and trypsinized Hela cells were plated at 40 k/well in 24 well plates (BD Falcon) and left overnight.
Hela cells were transfected with anti-miRs using Lipofectin (Invitrogen) at 2.5 ul Lipofectin/100 nM ASO/ml Opti-MEM I Reduced Serum Medium (Invitrogen) for 4 hours. After ASO transfection, Hela cells were refed with Dulbecco's Modified Eagle Medium with High Glucose (Invitrogen).
Hela cells are passively lysed and luciferase activity measured using the Dual-Luciferase Reporter Assay System (Promega).
The luciferase assay was performed to test the ability of anti-miRs with the nucleoside patterns described herein to inhibit the activity of miR-21. Results were compared to a ‘mock’ treatment, in which cells received no anti-miR treatment. The experiment was repeated and results of two experimental replicates are shown in the following Table B, as the luciferase value normalized to beta-galactosidase activity.
The luciferase assay was performed as described herein to test the ability of anti-miRs in Table F to inhibit the activity of miR-21. Results were compared to a ‘mock’ treatment, in which cells received no anti-miR treatment. The experiment was repeated and results of two experimental replicates are shown in the following Table D, as fold change in luciferase value relative to the mock treatment.

[3] = In vivo stability of compound in kidney tissue after administration to mice; settings: kidney tissue after administration; for in vivo (kidney) N − 1 (%): compound lacking the 3′-terminal nucleoside; for in vivo (kidney) N (%): full-length compound
[4] = Ex vivo liver homogenate stability assay (HPLC-TOF MS); settings: 24 hours at 37° C.; for ex vivo (liver) N %↓: full-length compound; for ex vivo (liver) % Endo / ex vivo (liver) % N − 1: 5 μM oligonucleotide in liver homogenate; for ex vivo (liver) % N − 1: compound lacking the 3′-terminal nucleoside
[5] = 500 nM oligonucleotide, two experimental replicates
[6] = 5 μM oligonucleotide in liver homogenate (50 mg tissue per ml)

Substance | geometric mean of the urinary albumin to creatinine ratio [1] | Collagen 3A1 (Normalized Expression) Mean [2] | Collagen 1A1 (Normalized Expression) Mean [2] | Collagen 1A1 (Normalized Expression) [2] | Collagen 3A1 (Normalized Expression) [2] | reduction in collagen expression (in words) [2] | luciferase value normalized to beta-galactosidase activity (miR-21; 4 nM oligonucleotide) | luciferase value normalized to beta-galactosidase activity (miR-21; 20 nM oligonucleotide) | luciferase value normalized to beta-galactosidase activity (miR-21; 100 nM oligonucleotide) | luciferase value normalized to beta-galactosidase activity (miR-21; [5]) | luciferase value normalized to beta-galactosidase activity (miR-21; .16 nM oligonucleotide) | luciferase value normalized to beta-galactosidase activity (miR-21; .8 nM oligonucleotide) | inhibition of miR-21 activity in the luciferase assay (in words) (miR-21) | in vivo (kidney) N − 1 (%) [3] | in vivo (kidney) N (%) [3] | compound lacking the 3′-terminal nucleoside [4, 6] | compound present as the full-length compound [4, 6] | ex vivo (liver) N %↓ [4, 6] | ex vivo (liver) % Endo [4] | ex vivo (liver) % N − 1 [4]
AEASATCSTGTCSTCAUSAATASAAE [Compound 25109, reference compound] | 140 μgAlb/mgCr |  |  |  |  |  |  |  |  |  |  |  |  |  |  |  |  |  |  | 
AECSAETECSAEGETECSTEGEAEUSAEAEGECSTEAE (ACATCAGTCTGATAAGCTA; anti-miR; sugar and backbone modifications, code letters not given here, further chemistry not given here) [Compound 25072] |  | 65.5 | 113.8 | 96.2 and 85.7 and 127.4 and 100.0 and 159.2 and 120.5 and 108.0 | 69.4 and 54.5 and 58.8 and 69.2 and 93.8 and 65.8 and 46.9 | did not consistently demonstrate a reduction in collagen expression | 76 | 86 | 115 | 143 | 40 | 49 | inhibition of miR-21 in a dose-dependent manner |  |  |  |  |  |  | 
AECSATCSAGTCSTGAUSAAGCSTAS (antisense ACATCAGTCTGATAAGCTA; cEt and 2'-MOE nucleosides) [Compound 25923] |  |  |  |  |  |  |  |  |  |  |  |  |  | 14 ± 5% | 58 ± 3% | about 18% | About 68% | 17% | 2-3% | 13%
AECSATCSAGTCSTGAUSAAGCSUsAS (ACATCAGTCTGATAAGCTA; sugar and backbone modifications) [Compound 25221] |  |  |  |  |  |  |  |  |  |  |  |  |  | 4 ± 1% | 76 ± 4% |  |  | 3% | 3% | 0%
AECSATCSASGTCSUSGAUSASAGCSUsAE (ACATCAGTCTGATAAGCTA; sugar and backbone modifications) [Compound 25220] |  |  |  |  |  |  |  |  |  |  |  |  |  | 16 ± 6% | 67 ± 16% |  |  | 3% | 3% | 0%
TE^MeCAACSATCSAGTCSTGAUSAAGCSTAE (TCAACATCAGTCTGATAAGCTA; modified nucleosides with 5-methyl C, code letters not given here, further chemistry not given here) [Compound 25082] |  | 59.1 | 91.7 | 122.2 and 188.3 and 102.5 and 67.6 and 40.6 and 44.1 and 73.8 and 94.7 | 62.9 and 78.9 and 82.2 and 43.8 and 32.6 and 34.3 and 75.8 and 62.5 | did not consistently demonstrate a reduction in collagen expression | 112 | 147 | 176 | 202 | 70 | 89 | inhibition of miR-21 in a dose-dependent manner |  |  |  |  |  |  | 
TE^MeCEAEAECSAETECSAEGETECSTEGEAEUSAEAEGECSTEAE (TCAACATCAGTCTGATAAGCTA; modified nucleosides and phosphorothioate, code letters not given here, further chemistry not given here) [Compound 25068] |  | 60.6 | 96.4 | 84.7 and 75.1 and 85.5 and 89.1 and 90.4 and 125.8 and 124.4 | 64.8 and 56.2 and 47.4 and 76.2 and 57.0 and 63.0 and 59.6 | active in reducing collagen expression, but to a lesser extent than 25070 | 64 | 86 | 97 | 122 | 45 | 54 | inhibition of miR-21 in a dose-dependent manner |  |  |  |  |  |  | 
